Experimental data as given in US20250223268A1, “4-Methylsulfonylbenzamide Compound, Preparation Method, Herbicidal Composition And Use” (Jiangsu Flag Chemical Industry Co., Ltd., priority 2022, published 2025).

Experiments:
Assay type in all cases: in vivo
Echinochloa crusgalli [1] = assay: Greenhouse herbicidal activity and crop safety comparison (Test Example 2)
From the text: (§1) Pre-emergence: Seeds of gramineous weeds (Echinochloa crusgalli, Echinochloa crusgalli var. zelayensis, Echinochloa phyllopogon, Eleusine indica, Digitaria sanguinalis, Leptochloa chinensis, Setaria viridis, Alopecurus japonicus Steud, Beckmannia syzigachne, Polypogon fugax, Alopecurus aequalis, Lolium multiflorum, Poa annua, Aegilops tataschii, Avena fatua, Alopecurus myosuroides, Bromus japonicus), broadleaf weeds (Eclipta prostrata, Amaranthus retroflexus, Rorippa indica, Myosoton aquaticum, Veronica didyma, Galium aparine, Solanum nigrum, Xanthium sibiricum, Conyza canadensis, Sesbania cannabina, Sagittaria trifolia), and Cyperus iria (Cyperus iria, Scirpus juncoides, Cyperus difformis, etc.) were sown in plastic pots (7 cm diameter) with nutrient soil and bottom holes. Crop seeds (including Oryza sativa subsp. indica, Oryza sativa subsp. japonica, Oryza sativa L. var. Glutinosa matsum, Triticum aestivum, Zea mays, Sorghum bicolor, Setaria italica, Glycine max, Gossypium hirsutum, Brassica napus, Arachis hypogaea) were sown in plastic pots (10 cm diameter) with nutrient soil and bottom holes. After sowing, the seeds were lightly covered with soil, and the soil was moistened via bottom water absorption. The pots were placed in a constant-temperature light-controlled growth chamber for 24 hours before soil spraying. Spraying was performed using a 3WP-2000 walking-type spray tower (produced by the Nanjing Agricultural Mechanization Institute, Ministry of Agriculture) with a spindle speed of 96 mm/r, spray height of 300 mm, effective spray width of 350 mm, spray area of 0.35 m^2, and nozzle flow rate of 390 mL/min.
(§2) After treatment, the test materials were air-dried naturally in the laboratory and then transferred to the growth chamber. Results were assessed 14-30 days later.
(§3) Post-emergence: Seeds of gramineous weeds (Echinochloa crusgalli, Echinochloa crusgalli var. zelayensis, Echinochloa phyllopogon, Eleusine indica, Digitaria sanguinalis, Leptochloa chinensis, Setaria viridis, Alopecurus japonicus Steud, Beckmannia syzigachne, Polypogon fugax, Alopecurus aequalis, Lolium multiflorum, Poa annua, Aegilops tataschii, Avena fatua, Alopecurus myosuroides, Bromus japonicus), broadleaf weeds (Eclipta prostrata, Amaranthus retroflexus, Rorippa indica, Myosoton aquaticum, Veronica didyma, Galium aparine, Solanum nigrum, Xanthium sibiricum, Conyza canadensis, Sesbania cannabina, Sagittaria trifolia), and Cyperus iria (Cyperus iria, Scirpus juncoides, Cyperus difformis, etc.) were sown in plastic pots (7 cm diameter) with nutrient soil and bottom holes. Crop seeds (including Oryza sativa subsp. indica, Oryza sativa subsp. japonica, Oryza sativa L. var. Glutinosa matsum, Triticum aestivum, Zea mays, Sorghum bicolor, Setaria italica, Glycine max, Gossypium hirsutum, Brassica napus, Arachis hypogaea) were sown in plastic pots (10 cm diameter) with nutrient soil and bottom holes. After sowing, the pots were placed in the growth chamber until the plants reached the 3-6 leaf stage for foliar spraying. Post-treatment, the materials were air-dried naturally and returned to the growth chamber. Results were assessed 14-21 days later.
(§4) • A: Fresh weight inhibition rate≥80% to 100%; • B: Fresh weight inhibition rate[…] to <80%; • C: Fresh weight inhibition rate≥40% to <60%; • D: Fresh weight inhibition rate≥20% to <40%; • E: Fresh weight inhibition rate<20%; • NT: Not tested.
(§5) Using the above method, the herbicidal activity and crop safety of the present compounds were compared with structurally similar known compounds (CK1, CK2, CK3, CK4: compounds 4-756, 4-759, 1-557, 1-563 from WO2012028579A1; CK5: compound 290-1 from WO2013087577A1; CK6: compound 1-129 from WO2011035874A1).

[2] = system: Oryza sativa subsp. indica; assay: as above
From the text: as §1, §2, §3, §4, §5

[3] = system: Oryza sativa subsp. japonica; assay: as above
From the text: as §1, §2, §3, §4, §5

Cyperus iria = assay: Greenhouse herbicidal activity assay, post-emergence; settings: Post-emergence test, rate 150 g a.i./hm^2, grade by fresh weight inhibition rate
In short: (§6)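 Graded A (≥80%) to E (<20%) by fresh weight inhibition, read 14-21 days after spraying. Plants were pot-grown in a growth chamber and received foliar application at the 3-6 leaf stage, being air-dried and returned to the chamber afterwards.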

Digitaria sanguinalis = assay: as above; settings: Post-emergence test, rate 150 g a.i./hm^2, grade by fresh weight inhibition rate
In short: as §6

Echinochloa crusgalli [4] = assay: as above; settings: Post-emergence test, rate 150 g a.i./hm^2, grade by fresh weight inhibition rate; for pest or weed control at 150 g/ha: Echinochloa crus-galli, read-out: Control efficacy grade, Echinochloa crusgalli
In short: as §6

Eclipta prostrata = assay: as above; settings: Post-emergence test, rate 150 g a.i./hm^2, grade by fresh weight inhibition rate
In short: as §6

Leptochloa chinensis = assay: as above; settings: Post-emergence test, rate 150 g a.i./hm^2, grade by fresh weight inhibition rate
In short: as §6

[5] = Echinochloa crus-galli, Rate 150 g/ha, read-out: Echinochloa crusgalli, control efficacy grading (fresh weight inhibition rate)

Compound	Echinochloa crusgalli, control efficacy grading (fresh weight inhibition rate) (Echinochloa crusgalli [1]; Rate 150 g/ha)	Oryza sativa subsp. indica, grading of fresh weight inhibition rate (crop safety) ([2]; Rate 150 g/ha)	Oryza sativa subsp. japonica, grading of fresh weight inhibition rate (crop safety) ([3]; Rate 150 g/ha)	Control efficacy grade, Cyperus iria (Cyperus iria)	Control efficacy grade, Digitaria sanguinalis (Digitaria sanguinalis)	Control efficacy grade, Echinochloa crusgalli (Echinochloa crusgalli [4])	Control efficacy grade, Eclipta prostrata (Eclipta prostrata)	Control efficacy grade, Leptochloa chinensis (Leptochloa chinensis)	inhibition at 75 g/ha (Echinochloa crusgalli [1]; Echinochloa crus-galli, Rate 75 g/ha, read-out: Echinochloa crusgalli, control efficacy grading (fresh weight inhibition rate)) [%]	inhibition at 150 g/ha (Echinochloa crusgalli [1]; [5]) [%]	Oryza sativa subsp. indica, grading of fresh weight inhibition rate (crop safety) ([2]; Rate 75 g/ha)	Oryza sativa subsp. japonica, grading of fresh weight inhibition rate (crop safety) ([3]; Rate 75 g/ha)	pest or weed control at 150 g/ha (Echinochloa crusgalli [4]) [%]	Echinochloa crusgalli, control efficacy grading (fresh weight inhibition rate) (Echinochloa crusgalli [1]; Rate 75 g/ha)	pest or weed control at 150 g/ha (Cyperus iria; Cyperus iria, read-out: Control efficacy grade, Cyperus iria) [%]	pest or weed control at 150 g/ha (Digitaria sanguinalis; Digitaria sanguinalis, read-out: Control efficacy grade, Digitaria sanguinalis) [%]	pest or weed control at 150 g/ha (Eclipta prostrata; Eclipta prostrata, read-out: Control efficacy grade, Eclipta prostrata) [%]	pest or weed control at 150 g/ha (Leptochloa chinensis; Dinebra chinensis, read-out: Control efficacy grade, Leptochloa chinensis) [%]
CCC(C)S(=O)(=O)c1c(S(C)(=O)=O)ccc(C(=O)Nc2nnnn2C)c1Cl (racemic) [Compound 1-24]	A (Fresh weight inhibition rate≥80% to 100%)	E (Fresh weight inhibition rate<20%)	E (Fresh weight inhibition rate<20%)	A (Fresh weight inhibition rate≥80% to 100%)	B (Fresh weight inhibition rate≥260% to <80%)	A (Fresh weight inhibition rate≥80% to 100%)	A (Fresh weight inhibition rate≥80% to 100%)	A (Fresh weight inhibition rate≥80% to 100%)	–	–	–	–	–	–	–	–	–	–
CCC[S+]([O-])c1c(S(C)(=O)=O)ccc(C(=O)N(C)c2nnc(C)o2)c1Cl (racemic) [Compound 3-787, 2-chloro-N-methyl-N-(5-methyl-1,3,4-oxadiazol-2-yl)-4-(methylsulfonyl)-3-(propylsulfinyl)benzamide]	–	E (Fresh weight inhibition rate<20%)	E (Fresh weight inhibition rate<20%)	–	–	–	–	–	80 to 100	80 to 100	E (Fresh weight inhibition rate<20%)	E (Fresh weight inhibition rate<20%)	80 to 100	–	–	–	–	–
CCC[S+]([O-])c1c(S(C)(=O)=O)ccc(C(=O)N(C)c2nnco2)c1Cl (racemic) [Compound 3-795]	A (Fresh weight inhibition rate≥80% to 100%)	E (Fresh weight inhibition rate<20%)	E (Fresh weight inhibition rate<20%)	–	–	A (Fresh weight inhibition rate≥80% to 100%)	–	–	–	–	–	–	–	–	–	–	–	–
CCC[S+]([O-])c1c(S(C)(=O)=O)ccc(C(=O)N(C)c2nnc(CC)o2)c1Cl (racemic) [Compound 3-798]	A (Fresh weight inhibition rate≥80% to 100%)	E (Fresh weight inhibition rate<20%)	E (Fresh weight inhibition rate<20%)	–	–	A (Fresh weight inhibition rate≥80% to 100%)	–	–	–	–	–	–	–	–	–	–	–	–
CCC[S+]([O-])c1c(S(C)(=O)=O)ccc(C(=O)N(C)c2nnc(C)o2)c1Cl (single isomer, unassigned) [Compound 3-788]	A (Fresh weight inhibition rate≥80% to 100%)	E (Fresh weight inhibition rate<20%)	E (Fresh weight inhibition rate<20%)	–	–	A (Fresh weight inhibition rate≥80% to 100%)	–	A (Fresh weight inhibition rate≥80% to 100%)	–	–	E (Fresh weight inhibition rate<20%)	E (Fresh weight inhibition rate<20%)	–	A (Fresh weight inhibition rate≥80% to 100%)	–	–	–	–
CCCS(=O)(=O)c1c(S(C)(=O)=O)ccc(C(=O)Nc2nnnn2C)c1Cl [Compound 1-5, 2-chloro-N-(1-methyl-1H-tetrazol-5-yl)-4-(methylsulfonyl)-3-(propylsulfonyl)benzamide]	–	E (Fresh weight inhibition rate<20%)	E (Fresh weight inhibition rate<20%)	–	–	–	–	–	–	80 to 100	–	–	80 to 100	–	80 to 100	80 to 100	80 to 100	80 to 100
CC(C)S(=O)(=O)c1c(S(C)(=O)=O)ccc(C(=O)Nc2nnnn2C)c1Cl [Compound 1-10]	A (Fresh weight inhibition rate≥80% to 100%)	E (Fresh weight inhibition rate<20%)	E (Fresh weight inhibition rate<20%)	A (Fresh weight inhibition rate≥80% to 100%)	A (Fresh weight inhibition rate≥80% to 100%)	A (Fresh weight inhibition rate≥80% to 100%)	A (Fresh weight inhibition rate≥80% to 100%)	A (Fresh weight inhibition rate≥80% to 100%)	–	–	–	–	–	–	–	–	–	–
Cn1nnnc1NC(=O)c1ccc(S(C)(=O)=O)c(S(=O)(=O)CC2CC2)c1Cl [Compound 1-31]	A (Fresh weight inhibition rate≥80% to 100%)	E (Fresh weight inhibition rate<20%)	E (Fresh weight inhibition rate<20%)	A (Fresh weight inhibition rate≥80% to 100%)	A (Fresh weight inhibition rate≥80% to 100%)	A (Fresh weight inhibition rate≥80% to 100%)	A (Fresh weight inhibition rate≥80% to 100%)	A (Fresh weight inhibition rate≥80% to 100%)	–	–	–	–	–	–	–	–	–	–
Cn1nnnc1NC(=O)c1ccc(S(C)(=O)=O)c(S(=O)(=O)C2CCC2)c1Cl [Compound 1-41]	A (Fresh weight inhibition rate≥80% to 100%)	E (Fresh weight inhibition rate<20%)	E (Fresh weight inhibition rate<20%)	A (Fresh weight inhibition rate≥80% to 100%)	–	A (Fresh weight inhibition rate≥80% to 100%)	A (Fresh weight inhibition rate≥80% to 100%)	A (Fresh weight inhibition rate≥80% to 100%)	–	–	–	–	–	–	–	–	–	–
Cn1nnnc1NC(=O)c1ccc(S(C)(=O)=O)c(S(=O)(=O)C2CCCC2)c1Cl [Compound 1-46]	A (Fresh weight inhibition rate≥80% to 100%)	E (Fresh weight inhibition rate<20%)	E (Fresh weight inhibition rate<20%)	A (Fresh weight inhibition rate≥80% to 100%)	–	A (Fresh weight inhibition rate≥80% to 100%)	A (Fresh weight inhibition rate≥80% to 100%)	–	–	–	–	–	–	–	–	–	–	–
